Experiment: plasma pharmacokinetics of probe cocktail substrates and metabolites with and without adavosertib in patients
Settings: for increase in Cmax on adavosertib co-administration / increase in exposure (AUC0–12) on adavosertib co-administration / increase in exposure (AUC0–t) on adavosertib co-administration: adavosertib 225 mg bid vs cocktail alone; for Point estimates of the geometric LS mean ratios S + AD/S, % (90% CI): AUC / Point estimates of the geometric LS mean ratios S + AD/S, % (90% CI): AUC0–t / Point estimates of the geometric LS mean ratios S + AD/S, % (90% CI): Cmax: substrate + adavosertib 225 mg bid vs substrate alone; for Vd/F: Mean Vz/F, L (SD)
Experimental: This sampling period was selected based on the half-lives of the probe substrates.
Plasma concentrations for caffeine, paraxanthine, omeprazole, 5-HO, midazolam, and 1ʹ-HM were all determined by high-performance liquid chromatography–tandem mass spectrometry (HPLC–MS/MS) at Labcorp Bioanalytical Laboratories (Madison, WI, USA).
Plasma concentrations of caffeine and paraxanthine collected with K2EDTA as anticoagulant were determined by HPLC–MS/MS detection simultaneously. The standard curves of caffeine and paraxanthine both ranged from 25.0 to 20,000 ng/mL. […] The lower limit of quantification (LLOQ) was 25.0 ng/mL for caffeine and paraxanthine.
Plasma concentrations of omeprazole and 5-HO were collected with lithium heparin as anticoagulant and were determined by HPLC–MS/MS detection simultaneously. […] The LLOQ was 20.0 nM for omeprazole and 5-HO.
Plasma concentrations of midazolam and 1ʹ-HM were collected with K2EDTA as anticoagulant and were determined by HPLC–MS/MS detection simultaneously. The standard curves of midazolam and 1ʹ-HM both ranged from 0.100 to 100 ng/mL. […] The LLOQ was 0.1 ng/mL for midazolam and 1ʹ-HM.
PK parameters were derived using non-compartmental methods with Phoenix® WinNonlin® version 6.4 (Certara, LP, Princeton, NJ, USA). All descriptive and inferential statistical computations were performed using SAS® version 9.1 (SAS Institute, Cary, NC, USA).

[1] = − AD (cocktail alone, period 1)

OCc1ncc2n1-c1ccc(Cl)cc1C(c1ccccc1F)=NC2 [1ʹ-HM, 1ʹ-hydroxymidazolam]
increase in Cmax on adavosertib co-administration: 33% | increase in exposure (AUC0–12) on adavosertib co-administration: 54% | increase in exposure (AUC0–t) on adavosertib co-administration: 58% | Point estimates of the geometric LS mean ratios S + AD/S, % (90% CI): AUC: 153.5 (131.0–179.8) % | Point estimates of the geometric LS mean ratios S + AD/S, % (90% CI): AUC0–t: 158.2 (139.1–180.0) % | Point estimates of the geometric LS mean ratios S + AD/S, % (90% CI): Cmax: 133.4 (106.5–167.1) % | Mean MR (metabolic ratio in relation to parent compound), AUC (− AD): 0.41 | Mean MR (metabolic ratio in relation to parent compound), AUC0–t (− AD): 0.43 | Mean MR (metabolic ratio in relation to parent compound), Cmax (− AD): 0.47 | Mean t½ h (SD) [1]: 7.2 (6.1) h | Median tmax, h (range) [1]: 0.5 (0.3–2.1) h

COc1ccc2nc([S+]([O-])Cc3ncc(CO)c(OC)c3C)[nH]c2c1 (stereo not shown) [5-HO, 5-hydroxyomeprazole]
Mean MR (metabolic ratio in relation to parent compound), AUC (human, in vivo): 0.50 | Mean MR (metabolic ratio in relation to parent compound), AUC0–t (human, in vivo): 0.73 | Mean MR (metabolic ratio in relation to parent compound), Cmax (human, in vivo): 0.53 | Mean t½ h (SD) (human, in vivo): 2.7 (1.7) h | Median tmax, h (range) (human, in vivo): 3.0 (0.7–6.0) h

Cn1c(=O)c2c(ncn2C)n(C)c1=O [Caffeine, caffeine, reference compound]
Mean CL/F, L/h (SD) (human, in vivo): 5.7 (2.5) L/h | Mean t½ h (SD) (human, in vivo): 6.4 (3.8) h | Median tmax, h (range) (human, in vivo): 0.5 (0.3–3.0) h | Vd/F (human, in vivo): 39.3 L

Cc1ncc2n1-c1ccc(Cl)cc1C(c1ccccc1F)=NC2 [Midazolam, midazolam, reference compound]
increase in Cmax on adavosertib co-administration: 39% | increase in exposure (AUC0–12) on adavosertib co-administration: 55% | increase in exposure (AUC0–t) on adavosertib co-administration: 55% | half-life (human, in vivo): 5.5 h | Vd/F (human, in vivo, + AD (adavosertib 225 mg bid, period 2)): 364 L | Vd/F (human, in vivo, − AD (cocktail alone, period 1)): 410 L | Point estimates of the geometric LS mean ratios S + AD/S, % (90% CI): AUC: 155.3 (138.6–173.9) % | Point estimates of the geometric LS mean ratios S + AD/S, % (90% CI): AUC0–t: 155.2 (140.5–171.5) % | Point estimates of the geometric LS mean ratios S + AD/S, % (90% CI): Cmax: 138.5 (118.9–161.3) % | Mean CL/F, L/h (SD) [1]: 59.0 (34.3) L/h | Median tmax, h (range) [1]: 0.5 (0.2–1.0) h

COc1ccc2[nH]c([S+]([O-])Cc3ncc(C)c(OC)c3C)nc2c1 (stereo not shown) [Omeprazole, omeprazole, reference compound]
Mean CL/F, L/h (SD) (human, in vivo): 13.3 (10.5) L/h | Median tmax, h (range) (human, in vivo): 3.0 (0.7–6.0) h | Vd/F (human, in vivo): 28.3 L | half-life (human, in vivo, Mean t½ h (SD)): 2 h

Cn1c(=O)[nH]c2ncn(C)c2c1=O [Paraxanthine, paraxanthine]
Mean MR (metabolic ratio in relation to parent compound), AUC (human, in vivo): 0.65 | Mean MR (metabolic ratio in relation to parent compound), AUC0–t (human, in vivo): 0.54 | Mean MR (metabolic ratio in relation to parent compound), Cmax (human, in vivo): 0.23 | Median tmax, h (range) (human, in vivo): 8.0 (4.0–11.8) h | half-life (human, in vivo, Mean t½ h (SD)): 7 h

— article PMC10363032 (Cancer Chemotherapy and Pharmacology, 2023)
